In US20210106703A1, “RADIOIMMUNOCONJUGATES IN COMBINATION WITH OTHER DRUGS AS TREATMENT AGAINST NHL” (Nordic Nanovector ASA, priority 2017, published 2021):
pIC50: −log10 of the molar value. Like-named read-outs stand apart in the source and are kept apart here.

Experiments:
Assay in all cases: Alamar Blue cytotoxicity study
SUDHL4 cells = format: cell-based, human; conditions: for pIC50: Homo sapiens
Method: Cells were incubated with 0.25, 0.5, 1, 2.5 or 5 μg/ml of Humalutin in cell culture flasks and incubated at 37° C./5% CO2. After 18-20 hours cells were washed and resuspended in fresh medium. Cell bound activity after washing was measured using a calibrated gamma detector (Cobra II auto-gamma detector, Packard Instrument Company, Meriden, Conn., USA). Cell concentration and viability was also measured after washing using Guava ViaCount Cell Dispersal Reagent for Flow Cytometry (Merck GaA, Darmstadt, Germany) and measured in a Guava EasyCyte 12HT (Merck KGaA, Darmstadt, Germany) to determine how well the cells survived the incubation. Cells were seeded in 96 well plates. […]
(§1) Cells were treated with either Humalutin, venetoclax or a combination of both and seeded into 96 well-plates. At each time point after treatment, cells were incubated with Alamar Blue (Thermo Fisher, DALL1100) for 4 hours and fluorescence measurements were performed using a multiplate reader Fluoroskan ascent FL to assess cell proliferation and viability. All experiments were done in duplicates using 2 samples in each experiment. Data were normalized to the untreated controls.
Cells were incubated with either 0, 0.5 μg/ml or 1 μg/ml Humalutin and the same procedure as described before for treatment with Humalutin alone and venetoclax alone was followed.
(§2) The Chou-Talalay model was used for synergy calculations using the Compusyn software. R (goodness of fit) was calculated for the individual treatments and should be over 0.90 in in vitro culture experiments in order to use with confidence the calculated combination index (CI). The CI is an indication of synergy: 0-0.9 is considered synergy. Synergysm grading was used as described in WO2006004917A2.
(§3) Cells were incubated with 0.25, 0.5, 1, 2.5 or 5 μg/ml of Humalutin in cell culture flasks and incubated at 37° C./5% CO2. After 18-20 hours cells were washed and resuspended in fresh medium. Cell bound activity after washing was measured using a calibrated gamma detector (Cobra II auto-gamma detector, Packard Instrument Company, Meriden, Conn., USA). Cell concentration and viability were also measured after washing using Guava ViaCount Cell Dispersal Reagent for Flow Cytometry (Merck GaA, Darmstadt, Germany) and measured in a Guava EasyCyte 12HT (Merck KGaA, Darmstadt, Germany) to determine how well the cells survived the incubation. Cells were seeded in 96 well plates. Alamar blue viability measurements were performed 120 h after seeding.
(§4) Cells were incubated with either 0 (control), 0.5 μg/ml or 1 μg/ml Humalutin for 18 to 20 hours. Cells were then washed and resuspended in fresh medium.

Rec-1 cells = format: cell-based; conditions: Homo sapiens, Rec1; Rec-1, 72 h incubation after seeding
Method: as §1, with “olaparib” for “venetoclax”
(§5) Cells were incubated with 0.25, 0.5, 1, 2.5 or 5 μg/ml of Humalutin in cell culture flasks and incubated at 37° C./5% CO2. After 18-20 hours cells were washed and resuspended in fresh medium. Cell bound activity after washing was measured using a calibrated gamma detector (Cobra II auto-gamma detector, Packard Instrument Company, Meriden, Conn., USA). Cell concentration and viability was also measured after washing using Guava ViaCount Cell Dispersal Reagent for Flow Cytometry (Merck GaA, Darmstadt, Germany) and measured in a Guava EasyCyte 12HT (Merck KGaA, Darmstadt, Germany) to determine how well the cells survived the incubation. Cells were seeded in 96 well plates.
(§6) Cells were seeded in 96 well plates pre-coated with from 1 to 100 μM olaparib in 0.2 ml medium and incubated at 37° C./5% CO2 for 72 hours before the cytotoxic effect was measured using alamar blue cell viability assay. […]

WSU-DLCL2 cells = format: cell-based; conditions: Homo sapiens, WSUDLCL2; WSU-DLCL2, 72 h incubation after seeding
Method: as §1, with “olaparib” for “venetoclax”
as §5, §6

DOHH2 cells = format: cell-based, human; conditions: for Combination Index (Chou-Talalay): 120 h; for pIC50: Homo sapiens
Method: as §1, with “olaparib” for “venetoclax”
as §5
(§7) Cells were seeded in 96 well plates pre-coated with from 1 to 100 μM olaparib in 0.2 ml medium and incubated at 37° C./5% CO2 for 72 hours before the cytotoxic effect was measured using alamar blue cell viability assay.
(§8) Cells were incubated with either 0, 0.5 μg/ml or 1 μg/ml Humalutin and the same procedure as described before for treatment with humalutin alone and olaparib alone was followed. Concentrations of olaparib used were between 1 and 100 μM.
as §2, with “use” for “use with confidence”, “WO2006004917A2. […]” for “WO2006004917A2.”
as §3

Granta 519 cells = format: cell-based, human; conditions: for Combination Index (Chou-Talalay): Granta, 120 h; for pIC50: Homo sapiens
Method: as §1, with “olaparib” for “venetoclax”
as §5, §7, §8
as §2, with “use” for “use with confidence”, “WO2006004917A2. […]” for “WO2006004917A2.”
as §3

U2932 cells = format: cell-based, human; conditions: for pIC50: Homo sapiens
Method: as §1, with “olaparib” for “venetoclax”
as §5, §7, §8
as §2, with “use” for “use with confidence”, “WO2006004917A2. […]” for “WO2006004917A2.”
as §3, §4

SMILES: O=C(c1cc(Cc2n[nH]c(=O)c3ccccc23)ccc1F)N1CCN(C(=O)C2CC2)CC1 [olaparib]
- pIC50 (SUDHL4 cells; SU-DHL-4, read-out: IC50 at 120 h, SUDHL-4, 120 h incubation after seeding): 4.66
- pIC50 (SUDHL4 cells; SU-DHL-4, SUDHL4, 72 h incubation after seeding, read-out: IC50): 5.98
- Synergism grade by Combination Index, combination with Humalutin (SUDHL4 cells; SUDHL4, Humalutin 0.5 or 1 μg/ml, 72 h): moderate antagonism
- pIC50 (Rec-1 cells): 6.14
- pIC50 (WSU-DLCL2 cells): 5.90
- Combination Index (Chou-Talalay) (DOHH2 cells; DOHH2, olaparib dose 2 + Humalutin 1 μg/ml): 1.34
- Combination Index (Chou-Talalay) (DOHH2 cells; DOHH2, olaparib dose 4 + Humalutin 1 μg/ml): 0.64
- Combination Index (Chou-Talalay) (DOHH2 cells; DOHH2, olaparib dose 8 + Humalutin 1 μg/ml): 0.43
- Combination Index (Chou-Talalay) (DOHH2 cells; DOHH2, olaparib dose 10 + Humalutin 1 μg/ml): 0.34
- pIC50 (DOHH2 cells; DOHH-2, read-out: IC50 at 120 h, DOHH2, 120 h incubation after seeding): 5.12
- pIC50 (DOHH2 cells; DOHH-2, DOHH2, 72 h incubation after seeding, read-out: IC50): 5.69
- Synergism grade by Combination Index, combination with Humalutin (Granta 519 cells; Granta 519, Humalutin 0.5 or 1 μg/ml, 72 h): very strong synergism
- Combination Index (Chou-Talalay) (Granta 519 cells; olaparib dose 2 + Humalutin 1 μg/ml): 1.77
- Combination Index (Chou-Talalay) (Granta 519 cells; olaparib dose 4 + Humalutin 1 μg/ml): 0.15
- Combination Index (Chou-Talalay) (Granta 519 cells; olaparib dose 8 + Humalutin 1 μg/ml): 0.06
- Combination Index (Chou-Talalay) (Granta 519 cells; olaparib dose 10 + Humalutin 1 μg/ml): 0.10
- pIC50 (Granta 519 cells; read-out: IC50 at 120 h, Granta 519, 120 h incubation after seeding): 4.82
- pIC50 (Granta 519 cells; Granta 519, 72 h incubation after seeding, read-out: IC50): 5.57
- pIC50 (U2932 cells; read-out: IC50 at 120 h, U2932, 120 h incubation after seeding): 4.05
- pIC50 (U2932 cells; U2932, 72 h incubation after seeding, read-out: IC50): 5.71
- Synergism grade by Combination Index, combination with Humalutin (U2932 cells; U2932, Humalutin 0.5 or 1 μg/ml, 72 h): very strong synergism
